Experimental data taken from patent publication EP4559912A1, “SULFUR-CONTAINING HETEROAROMATIC RING COMPOUND, PHARMACEUTICAL COMPOSITION THEREOF, AND USE THEREOF” (Evopoint Biosciences Co., Ltd., priority 2022, dated 2024).

biological target: His-GST tagged PARG (Homo sapiens, UniProt Q86W56); test: In vitro PARG assay (TR-FRET); format: biochemical; conditions: 4 pM His-GST tagged PARG, 30 nM Bio PARylated PARP1 substrate, 20 min at room temperature, TR-FRET Em 665/Em 615
Procedure: The in vitro PARG assay experiment was conducted in a standard 384-well plate with a total volume of 15 µL. To a 384-well plate containing the test compound was added 5 µL of an enzyme reaction mixture (50 mM Tris-HCL pH 7.5, 50 mM KCL, 0.01% Triton X-100, 0.01% BSA, and 4 pM His-GST tagged PARG). The plate was incubated at room temperature for 10 min, and then 5 µL of a substrate mixture (50 mM Tris-HCL pH 7.5, 50 mM KCL, 0.01% Triton X-100, 0.01% BSA, and 30 nM Bio PARylated PARP1) was added to initiate the reaction. The plate was further incubated at room temperature for 20 min, and then 5 µL of a detection reagent was added to terminate the reaction. The detection reagent was prepared from a buffer (50 mM Tris-HCl pH 7.5, 50 mM KCL, 0.01% Triton X-100, and 0.01% BSA), 3 µM compound PDD00017273, 1.5× Mab anti-6HIS XL665 (Cisbio: 61HISXLA), and 1.5× streptavidin terbium cryptate (Cisbio: 610SATLA). The final concentrations of the compound PDD00017273, the 1.5× Mab anti-6HIS XL665 (Cisbio: 61HISXLA), and the 1.5× streptavidin terbium cryptate were 1 µM, 0.5×, and 0.5×, respectively. After incubation in the dark at room temperature for 120 min, TR-FRET signals were measured at Ex 340, Em 665, and Em 615. The ratio for each well was calculated as Em 665/Em 615 (the ratio here corresponds to the ratio of fluorescence signals at the wavelengths).

Sequence of His-GST tagged PARG (Q86W56 whole entry): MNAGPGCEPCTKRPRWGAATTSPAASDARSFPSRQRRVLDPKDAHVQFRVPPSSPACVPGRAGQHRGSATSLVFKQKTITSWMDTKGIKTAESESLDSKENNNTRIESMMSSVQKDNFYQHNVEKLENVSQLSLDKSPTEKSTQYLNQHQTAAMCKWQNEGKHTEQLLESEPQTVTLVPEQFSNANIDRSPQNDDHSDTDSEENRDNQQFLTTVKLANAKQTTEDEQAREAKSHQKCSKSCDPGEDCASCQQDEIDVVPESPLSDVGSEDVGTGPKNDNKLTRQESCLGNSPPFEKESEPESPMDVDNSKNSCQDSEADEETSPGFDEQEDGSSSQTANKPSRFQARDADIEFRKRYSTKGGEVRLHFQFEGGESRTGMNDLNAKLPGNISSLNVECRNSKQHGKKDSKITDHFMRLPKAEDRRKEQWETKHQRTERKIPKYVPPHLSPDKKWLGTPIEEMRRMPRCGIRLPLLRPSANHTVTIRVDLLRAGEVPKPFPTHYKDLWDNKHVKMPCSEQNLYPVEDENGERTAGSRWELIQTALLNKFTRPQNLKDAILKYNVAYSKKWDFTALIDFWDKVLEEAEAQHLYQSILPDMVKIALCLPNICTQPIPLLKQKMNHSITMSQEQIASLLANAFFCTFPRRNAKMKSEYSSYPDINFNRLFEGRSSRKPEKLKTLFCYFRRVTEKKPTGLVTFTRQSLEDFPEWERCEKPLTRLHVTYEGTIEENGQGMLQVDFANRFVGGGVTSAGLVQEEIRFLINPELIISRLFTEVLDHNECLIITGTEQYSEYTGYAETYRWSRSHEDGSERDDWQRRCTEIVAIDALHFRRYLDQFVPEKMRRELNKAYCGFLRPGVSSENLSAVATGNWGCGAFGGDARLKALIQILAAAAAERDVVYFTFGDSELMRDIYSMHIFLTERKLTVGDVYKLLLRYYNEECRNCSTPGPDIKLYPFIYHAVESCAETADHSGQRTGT

| SMILES | IC50 |
| --- | --- |
| Cc1nnc(-n2ncc3c(N4CCN(C(=O)C(=O)C(C)(C)C)[C@H](C)C4)cc(S(=O)(=O)NC4(C#N)CC4)cc32)s1 [EVO29407] | < 100 nM |
| C[C@@H]1CN(c2cc(S(=O)(=O)NC3(C)CC3)cc3c2cnn3-c2nnc(C(F)F)s2)CCN1C(=O)C(=O)C(C)(C)C [EVO29406] | < 100 nM |
| Cc1nnc(-n2ncc3c(N4CCN(C(=O)[C@@H](C)O)[C@H](C)C4)cc(S(=O)(=O)NC4(C)CC4)cc32)s1 [EVO29338] | < 100 nM |
| Cc1nnc(-n2ncc3c(N4CCN(C(=O)C(=O)C(C)C)[C@H](C)C4)cc(S(=O)(=O)NC4(C#N)CC4)cc32)s1 [EVO29385] | < 100 nM |
| C[C@@H]1CN(c2cc(S(=O)(=O)NC3(C#N)CC3)cc3c2cnn3-c2nnc(C(F)F)s2)CCN1C(=O)C(=O)C(C)(C)C [EVO29405] | < 100 nM |
| C[C@@H]1CN(c2cc(S(=O)(=O)NC3(C)CC3)cc3c2cnn3-c2nnc(C(F)F)s2)CCN1C(=O)C(=O)C1CC1 [EVO29387] | < 100 nM |
| Cc1nnc(-n2ncc3c(N4CCN(C(=O)C(=O)C(C)C)[C@H](C)C4)cc(S(=O)(=O)NC4(C)CC4)cc32)s1 [EVO29384] | < 100 nM |
| Cc1nnc(-n2ncc3c(N4CCN(C(=O)C(=O)C(C)(C)C)[C@H](C)C4)cc(S(=O)(=O)NC4(C)CC4)cc32)s1 [EVO29408] | < 100 nM |
| C[C@@H]1CN(c2cc(S(=O)(=O)NC3(C)CC3)cc3c2cnn3-c2nnc(C(F)F)s2)CCN1C(=O)[C@@H](C)O [EVO29337] | < 100 nM |
| CC(C)[C@@H](O)C(=O)N1CCN(c2cc(S(=O)(=O)NC3(C#N)CC3)cc3c2cnn3-c2nnc(C(F)F)s2)C[C@H]1C [EVO29335] | < 100 nM |
| CO[C@H](C)C(=O)N1CCN(c2cc(S(=O)(=O)NC3(C#N)CC3)cc3c2cnn3-c2nnc(C(F)F)s2)C[C@H]1C [EVO29409] | < 100 nM |
| COC(C)(C)C(=O)N1CCN(c2cc(S(=O)(=O)NC3(C#N)CC3)cc3c2cnn3-c2nnc(C(F)F)s2)C[C@H]1C [EVO29426] | < 100 nM |
| C[C@@H]1CN(c2cc(S(=O)(=O)NC3(C#N)CC3)cc3c2cnn3-c2nnc(C(F)F)s2)CCN1C(=O)C(=O)C1CC1 [EVO29386] | 100 to 500 nM |
| N#CC1(NS(=O)(=O)c2cc(N3CCN(C(=O)CO)CC3)c3cnn(-c4nnc(C(F)F)s4)c3c2)CC1 [EVO29103] | < 100 nM |

Now from value to compound:

| IC50 | SMILES |
| --- | --- |
| < 100 nM | C[C@@H]1CN(c2cc(S(=O)(=O)NC3(C#N)CC3)cc3c2cnn3-c2nnc(C(F)F)s2)CCN1C(=O)C(O)C(C)(C)C(F)F (single isomer, unassigned) [EVO29752P1] |
| < 100 nM | C[C@@H]1CN(c2cc(S(=O)(=O)NC3(C#N)CC3)cc3c2cnn3-c2nnc(C(F)F)s2)CCN1C(=O)C(C)(C)OC(F)F [EVO29592] |
| < 100 nM | C[C@@H]1CN(c2cc(S(=O)(=O)NC3(C#N)CC3)cc3c2ccn3-c2nnc(C(F)F)s2)CCN1C(=O)[C@H](O)C(C)(C)C [EVO29788] |
| < 100 nM | C[C@@H]1CN(c2cc(S(=O)(=O)NC3(C#N)CC3)cc3c2cnn3-c2nnc(C(F)F)s2)CCN1C(=O)C(O)C(C)(C)CF (single isomer, unassigned) [EVO29751P2] |
| < 100 nM | C[C@@H]1CN(c2cc(S(=O)(=O)NC3(C#N)CC3)cc3c2cnn3-c2nnc(C(F)F)s2)CCN1C(=O)C(O)C1CC1 (single isomer, unassigned) [EVO29534] |
| < 100 nM | C[C@@H]1CN(c2cc(S(=O)(=O)NC3(C#N)CC3)cc3c2cnn3-c2nnc(C(F)F)s2)CCN1C(=O)[C@H](O)C(C)(C)C [EVO29451] |
